Laboratory results from article PMC12638379, “An innovative approach to development of new pyrazolylquinolin-2-one hybrids as dual EGFR and BRAF^V600E inhibitors” (Molecular Diversity, 2025).
Read-outs that look alike come from different tables or passages of the source.

Columns and labels:
BRAF^V600E = BRAF^V600E (Homo sapiens, UniProt P15056, V600E); assay: BRAF^V600E inhibitory assay (B-Raf (V600E) Kinase Assay); assay type: biochemical; settings: read-out: BRAF^V600E inhibition IC50 ± SEM
EGFR = target: T1, EGFR (Homo sapiens, UniProt P00533); assay: EGFR inhibitory assay; assay type: biochemical; settings: for %inh: EGFR, unit not given
T1 construct: EGFR cytoplasmic domain (EGFR-CD, amino acids 645–1186); His6 (N); made in house; host or cells: Sf-9 insect cells (baculovirus)
T1 sequence (P00533 669-1210): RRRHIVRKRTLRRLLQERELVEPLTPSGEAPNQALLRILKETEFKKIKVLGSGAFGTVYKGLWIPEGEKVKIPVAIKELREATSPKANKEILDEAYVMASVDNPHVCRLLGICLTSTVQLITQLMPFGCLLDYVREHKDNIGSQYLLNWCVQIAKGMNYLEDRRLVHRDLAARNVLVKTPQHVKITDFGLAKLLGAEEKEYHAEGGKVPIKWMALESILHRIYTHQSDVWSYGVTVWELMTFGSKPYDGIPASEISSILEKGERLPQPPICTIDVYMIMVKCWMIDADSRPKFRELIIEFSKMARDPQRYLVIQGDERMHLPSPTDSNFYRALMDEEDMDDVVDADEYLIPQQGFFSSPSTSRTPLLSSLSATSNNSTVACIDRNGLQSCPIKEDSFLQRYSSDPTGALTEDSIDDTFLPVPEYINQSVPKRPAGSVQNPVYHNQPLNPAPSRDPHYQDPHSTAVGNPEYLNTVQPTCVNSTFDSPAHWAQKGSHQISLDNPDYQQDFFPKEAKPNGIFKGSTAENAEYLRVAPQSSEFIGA

NCI 60 cancer cell lines = assay: NCI anticancer screening over a panel of 60 cancer cells, single concentration 10 µM; assay type: cell-based, human; settings: Homo sapiens, read-out: % Growth Inhibition (GI %)
Summary of the method: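 Run under the NCI Compound Evaluation Branch protocol, each compound was tested once at 10 µM. The panel comprised 60 cancer cell lines of diverse tissue origin, including leukemia, lung, colon, CNS, renal, ovarian, breast and prostate.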

[1] = system: leukemia (MOLT-4) cell line; assay: MTT antiproliferative assay, MOLT-4; assay type: cell-based, human
Description: (§1) After 24 h of culture incubation and supernatants discarded.

normal cell line WI-38 = assay: MTT cytotoxicity on normal cell line WI-38
[2] = MTT cytotoxicity on normal cell line WI-38; settings: human, WI-38 normal cells, % viability
[3] = system: lung cancer (HOP-92) cell line; assay: MTT antiproliferative assay, HOP-92; assay type: cell-based, human
Description: […]. […] See Appendix B.
as §1

BRAF^V600E, sequence (P15056 whole entry V600E): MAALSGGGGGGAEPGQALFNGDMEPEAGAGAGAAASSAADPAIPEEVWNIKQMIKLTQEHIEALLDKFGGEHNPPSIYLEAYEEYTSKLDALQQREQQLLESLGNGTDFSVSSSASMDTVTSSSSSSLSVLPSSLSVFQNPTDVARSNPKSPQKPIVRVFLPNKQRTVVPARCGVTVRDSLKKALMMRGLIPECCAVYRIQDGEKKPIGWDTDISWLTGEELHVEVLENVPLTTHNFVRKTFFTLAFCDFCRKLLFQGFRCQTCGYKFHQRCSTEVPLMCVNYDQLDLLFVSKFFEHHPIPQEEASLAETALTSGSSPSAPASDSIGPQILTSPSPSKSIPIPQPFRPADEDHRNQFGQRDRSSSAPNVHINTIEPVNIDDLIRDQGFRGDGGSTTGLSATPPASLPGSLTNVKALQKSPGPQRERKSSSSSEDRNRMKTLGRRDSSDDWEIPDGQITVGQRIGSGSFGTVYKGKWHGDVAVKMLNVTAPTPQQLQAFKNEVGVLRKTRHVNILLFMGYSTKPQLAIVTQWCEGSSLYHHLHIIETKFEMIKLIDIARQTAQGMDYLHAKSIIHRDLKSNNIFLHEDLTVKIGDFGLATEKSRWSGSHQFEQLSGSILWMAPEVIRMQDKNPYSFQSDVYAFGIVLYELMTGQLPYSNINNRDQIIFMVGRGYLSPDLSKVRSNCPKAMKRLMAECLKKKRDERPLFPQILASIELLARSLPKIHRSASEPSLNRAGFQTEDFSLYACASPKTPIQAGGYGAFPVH

## C/C(=N\Nc1ccc(C(=O)O)cc1)c1cnn(-c2cc(=O)[nH]c3ccc(C)cc23)c1C [Compound 4g, (E)-4-(2-(1-(5-methyl-1-(6-methyl-2-oxo-1,2-dihydroquinolin-4-yl)-1H-pyrazol-4-yl)ethylidene)hydrazineyl)benzoic acid]
BRAF^V600E
  IC50: 0.194 ± 0.008 µM
EGFR; conc 0.01 (log -2)
  %inh: 21%
EGFR; conc 0.1 (log -1)
  %inh: 44.2%
EGFR; conc 1 (log 0)
  %inh: 71.4%
EGFR; conc 10 (log 1)
  %inh: 86.3%
EGFR; conc 100 (log 2)
  %inh: 94.5%
EGFR; read-out: EGFR inhibition IC50 ± SEM
  IC50: 0.194 ± 0.007 µM
NCI 60 cancer cell lines; 786-0, Renal cancer 786-0, 10 μM
  inhibition at 10 µM: 6.84%
NCI 60 cancer cell lines; A498, Renal cancer A498, 10 μM
  inhibition at 10 µM: < 5%
NCI 60 cancer cell lines; A549, Non-small cell lung cancer A549/ATCC, 10 μM
  inhibition at 10 µM: < 5%
NCI 60 cancer cell lines; ACHN, Renal cancer ACHN, 10 μM
  inhibition at 10 µM: < 5%
NCI 60 cancer cell lines; BT-549, Breast cancer BT-549, 10 μM
  inhibition at 10 µM: 11.6%
NCI 60 cancer cell lines; CAKI-1, Renal cancer CAKI-1, 10 μM
  inhibition at 10 µM: 10.3%
NCI 60 cancer cell lines; CCRF-CEM, Leukemia CCRF-CEM, 10 μM
  inhibition at 10 µM: 6.98%
NCI 60 cancer cell lines; DU-145, Prostate cancer DU-145, 10 μM
  inhibition at 10 µM: < 5%
NCI 60 cancer cell lines; EKVX, Non-small cell lung cancer EKVX, 10 μM
  inhibition at 10 µM: 7.01%
NCI 60 cancer cell lines; HCC 2998, Colon cancer HCC-2998, 10 μM
  inhibition at 10 µM: < 5%
NCI 60 cancer cell lines; HL-60, Leukemia HL-60(TB), 10 μM
  inhibition at 10 µM: < 5%
NCI 60 cancer cell lines; HOP-62, Non-small cell lung cancer HOP-62, 10 μM
  inhibition at 10 µM: 6.86%
NCI 60 cancer cell lines; HOP-92, Non-small cell lung cancer HOP-92, 10 μM
  inhibition at 10 µM: 93.9%
NCI 60 cancer cell lines; HT-29, Colon cancer HT29, 10 μM
  inhibition at 10 µM: < 5%
NCI 60 cancer cell lines; Hs-578T, Breast cancer HS 578T, 10 μM
  inhibition at 10 µM: 7.48%
NCI 60 cancer cell lines; IGROV-1, Ovarian cancer IGROV1, 10 μM
  inhibition at 10 µM: < 5%
NCI 60 cancer cell lines; K562, Leukemia K-562, 10 μM
  inhibition at 10 µM: < 5%
NCI 60 cancer cell lines; LOX IMVI, Melanoma LOX IMVI, 10 μM
  inhibition at 10 µM: 5.11%
NCI 60 cancer cell lines; Leukemia SR, 10 μM
  inhibition at 10 µM: 11.4%
NCI 60 cancer cell lines; MCF7, Breast cancer MCF7, 10 μM
  inhibition at 10 µM: 9.62%
NCI 60 cancer cell lines; MDA-MB-231, Breast cancer MDA-MB-231/ATCC, 10 μM
  inhibition at 10 µM: 8.94%
NCI 60 cancer cell lines; MDA-MB-435, Melanoma MDA-MB-435, 10 μM
  inhibition at 10 µM: < 5%
NCI 60 cancer cell lines; MDA-MB-468, Breast cancer MDA-MB-468, 10 μM
  inhibition at 10 µM: 16.8%
NCI 60 cancer cell lines; Melanoma MALM-3M, 10 μM
  inhibition at 10 µM: 16.7%
NCI 60 cancer cell lines; NCI-H23, Non-small cell lung cancer NCI-H23, 10 μM
  inhibition at 10 µM: < 5%
NCI 60 cancer cell lines; NCI-H226, Non-small cell lung cancer NCI-H226, 10 μM
  inhibition at 10 µM: 9.91%
NCI 60 cancer cell lines; NCI-H322M, Non-small cell lung cancer NCI-H322M, 10 μM
  inhibition at 10 µM: < 5%
NCI 60 cancer cell lines; NCI-H460, Non-small cell lung cancer NCI-H460, 10 μM
  inhibition at 10 µM: < 5%
NCI 60 cancer cell lines; NCI-H522, Non-small cell lung cancer NCI-H522, 10 μM
  inhibition at 10 µM: 10.6%
NCI 60 cancer cell lines; NCI/ADR-RES, Ovarian cancer NCI/ADR-RES, 10 μM
  inhibition at 10 µM: < 5%
NCI 60 cancer cell lines; OVCAR-4, Ovarian cancer OVCAR-4, 10 μM
  inhibition at 10 µM: 5.43%
NCI 60 cancer cell lines; OVCAR-8, Ovarian cancer OVCAR-8, 10 μM
  inhibition at 10 µM: < 5%
NCI 60 cancer cell lines; Prostate cancer PC-3, 10 μM
  inhibition at 10 µM: 11.2%
NCI 60 cancer cell lines; RPMI-8226, Leukemia RPMI-8226, 10 μM
  inhibition at 10 µM: 14.9%
NCI 60 cancer cell lines; RXF 393, Renal cancer RXF 393, 10 μM
  inhibition at 10 µM: 6.27%
NCI 60 cancer cell lines; SF-539, CNS Cancer SF-539, 10 μM
  inhibition at 10 µM: < 5%
NCI 60 cancer cell lines; SK-MEL-2, Melanoma SK-MEL-2, 10 μM
  inhibition at 10 µM: < 5%
NCI 60 cancer cell lines; SK-MEL-28, Melanoma SK-MEL-28, 10 μM
  inhibition at 10 µM: < 5%
NCI 60 cancer cell lines; SK-OV-3, Ovarian cancer SK-OV-3, 10 μM
  inhibition at 10 µM: 5.67%
NCI 60 cancer cell lines; SN12C, Renal cancer SN12C, 10 μM
  inhibition at 10 µM: 7.44%
NCI 60 cancer cell lines; SNB-75, CNS Cancer SNB-75, 10 μM
  inhibition at 10 µM: 8.08%
NCI 60 cancer cell lines; TK-10, Renal cancer TK-10, 10 μM
  inhibition at 10 µM: < 5%
NCI 60 cancer cell lines; U-251, CNS Cancer U251, 10 μM
  inhibition at 10 µM: < 5%
NCI 60 cancer cell lines; UACC-62, Melanoma UACC-62, 10 μM
  inhibition at 10 µM: 8.46%
NCI 60 cancer cell lines; UACC-257, Melanoma UACC-257, 10 μM
  inhibition at 10 µM: < 5%
NCI 60 cancer cell lines; UO-31, Renal cancer UO-31, 10 μM
  inhibition at 10 µM: 32.1%
[1]; Homo sapiens, MOLT-4, MOLT-4, MTT, 0.4uM
  viability at 0.4 µM: 68.9%
[1]; Homo sapiens, MOLT-4, MOLT-4, MTT, 1.6uM
  viability at 1.6 µM: 54.8%
[1]; Homo sapiens, MOLT-4, MOLT-4, MTT, 6.3uM
  viability at 6.3 µM: 48.2%
[1]; Homo sapiens, MOLT-4, MOLT-4, MTT, 25uM
  viability at 25 µM: 42.4%
[1]; Homo sapiens, MOLT-4, MOLT-4, MTT, 100uM
  viability at 100 µM: 35.3%
[1]; Homo sapiens, MOLT-4, MTT, read-out: Antiproliferative activity IC50 ± SEM, MOLT-4
  IC50: 6.17 ± 0.25 µM
[1]; MOLT-4, MTT, 1.6uM, listed as Ws7, 1.6 µM
  % viability: 54.85%
[1]; MOLT-4, MTT, 6.3uM, listed as Ws7, 6.3 µM
  % viability: 48.2%
[1]; MOLT-4, MTT, 25uM, listed as Ws7, 25 µM
  % viability: 42.37%
[1]; MOLT-4, MTT, 100uM, listed as Ws7, 100 µM
  % viability: 35.35%
Normal cell line WI-38; Homo sapiens, read-out: Antiproliferative activity IC50 ± SEM
  IC50: 37.6 ± 1.5 µM
Normal cell line WI-38; WI38, 0.4uM (log conc. -0.41), listed as Ws7, 0.4 µM
  % viability: 80.43%
Normal cell line WI-38; WI38, 1.6uM (log conc. 0.19), listed as Ws7, 1.6 µM
  % viability: 70.19%
Normal cell line WI-38; WI38, 6.3uM (log conc. 0.8), listed as Ws7, 6.3 µM
  % viability: 62.8%
Normal cell line WI-38; WI38, 25uM (log conc. 1.4), listed as Ws7, 25 µM
  % viability: 51.55%
Normal cell line WI-38; WI38, 100uM (log conc. 2), listed as Ws7, 100 µM
  % viability: 44.1%
[2]; WI38, 0.4uM (log conc. -0.41)
  viability at 24 h, 0.4 µM: 80.4%
[2]; WI38, 1.6uM (log conc. 0.19)
  viability at 24 h, 1.6 µM: 70.2%
[2]; WI38, 6.3uM (log conc. 0.8)
  viability at 24 h, 6.3 µM: 62.8%
[2]; WI38, 25uM (log conc. 1.4)
  viability at 24 h, 25 µM: 51.6%
[2]; WI38, 100uM (log conc. 2)
  viability at 24 h, 100 µM: 44.1%
[3]; HOP-92, MTT, 25uM, listed as Ws7, 25 µM
  % viability: 48.02%
[3]; HOP-92, MTT, 100uM, listed as Ws7, 100 µM
  % viability: 33.71%
[3]; Homo sapiens, HOP-92, HOP-92, MTT, 0.4uM, read-out: % viability
  viability at 0.4 µM: 78%
[3]; Homo sapiens, HOP-92, HOP-92, MTT, 1.6uM, read-out: % viability
  viability at 1.6 µM: 67%
[3]; Homo sapiens, HOP-92, HOP-92, MTT, 6.3uM, read-out: % viability
  viability at 6.3 µM: 56.5%
[3]; Homo sapiens, HOP-92, HOP-92, MTT, 25uM, read-out: % viability
  viability at 25 µM: 48%
[3]; Homo sapiens, HOP-92, HOP-92, MTT, 100uM, read-out: % viability
  viability at 100 µM: 33.7%
[3]; Homo sapiens, HOP-92, MTT, read-out: Antiproliferative activity IC50 ± SEM, HOP-92
  IC50: 14.7 ± 0.66 µM
